Source: the supplement of paper PMC9912026

Tested on: A375_NRAS_Q61K_DOXind
Assay: pERK immunofluorescence relative to doxycycline-induced cells with 1 uM vemurafenib alone; higher = more ERK phosphorylation (less pathway inhibition)
Settings: drug treatment time 24 h, doxycycline 1000 ng/mL, doxycycline pre-induction time 24 h, vemurafenib background 1 µM
Method in brief: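 A375 cells with doxycycline-inducible FLAG-tagged mutant NRAS were given doxycycline or mock for 24 h. They then received two-drug dose combinations with a third drug held at 1 uM for 24 h. Fixed cells were stained for phospho-ERK T202/Y204 and imaged at 10× on an Operetta, with FLAG-negative cells excluded. The cytosolic population mean is normalised to induced cells given the 1 uM drug alone; the value is the mean of 2 technical replicates. pERK was measured by immunofluorescence with FLAG-negative cells excluded. Averages of 2 technical replicates.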

CNc1ncc2cc(-c3cc(NC(=O)NCCC(C)(C)C)c(F)cc3C)c(C)nc2n1 + O=C(c1ccc(F)c(F)c1Nc1ccc(I)cc1F)N1CC(O)([C@@H]2CCCCN2)C1 [Cobimetinib]
pERK immunofluorescence
Settings	drug B concentration 0 µM	drug B concentration 0.0001 µM	drug B concentration 0.000316228 µM	drug B concentration 0.001 µM	drug B concentration 0.00316228 µM	drug B concentration 0.01 µM	drug B concentration 0.0316228 µM	drug B concentration 0.1 µM	drug B concentration 0.316228 µM	drug B concentration 1 µM
drug A concentration 0 µM	–	1.08	1.08	1.06	1.06	0.844	0.515	0.168	0.0479	0.0212
drug A concentration 0.000316228 µM	0.724	0.706	0.786	0.747	0.709	0.579	0.323	0.0754	0.026	0.0165
drug A concentration 0.001 µM	0.696	0.745	0.758	0.771	0.687	0.45	0.16	0.0453	0.0201	0.016
drug A concentration 0.00316228 µM	0.664	0.697	0.767	0.651	0.592	0.268	0.0865	0.0262	0.0166	0.0158
drug A concentration 0.01 µM	0.583	0.608	0.593	0.537	0.359	0.109	0.0388	0.0196	0.0161	0.0166
drug A concentration 0.0316228 µM	0.455	0.528	0.47	0.389	0.185	0.0635	0.0285	0.0172	0.0158	0.0155
drug A concentration 0.1 µM	0.306	0.31	0.287	0.187	0.0869	0.0387	0.0223	0.0174	0.0169	0.0168
drug A concentration 0.316228 µM	0.122	0.116	0.108	0.077	0.0399	0.0224	0.0172	0.0164	0.0168	0.017
drug A concentration 1 µM	0.0463	0.045	0.0414	0.0293	0.0209	0.0181	0.0173	0.0169	0.0172	0.0172
drug A concentration 3.16228 µM	0.0225	0.0225	0.0215	0.0203	0.0207	0.0173	0.0169	0.0175	0.0169	0.0164
drug A concentration 10 µM	0.0198	0.0196	0.0203	0.0186	0.0186	0.02	0.0189	0.0179	0.0182	0.0184
